# Key:
# CDK9/CycT1 = molecular target: T1, CDK9/CycT1 (Homo sapiens, UniProt P50750); assay: CDK9/CycT1 high ATP kinase assay (TR-FRET, 2 mM ATP); type: biochemical; conditions: 2 mM ATP (high ATP); median; read-out: CDK9/CyclinT1, 2 mM ATP (high ATP), IC50 (median)
# T1 construct: Recombinant full-length His-tagged human CDK9 and CycT1; purchased Life Technologies PV4131; host or cells: insect cells
# Outline: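 Full-length His-tagged human CDK9/CycT1 (insect cell, ~0.5 μg/mL) preincubated 15 min at 22 °C with compound in Tris pH 8.0, MgCl2, DTT buffer before reaction with biotinylated peptide substrate at high ATP (2 mM).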
# CDK2/CycE = molecular target: T2, CDK2/CycE (Homo sapiens, UniProt P24941); assay: CDK2/CycE kinase assay (TR-FRET, 2 mM ATP); type: biochemical; conditions: 2 mM ATP (high ATP); median; read-out: CDK2/CyclinE, 2 mM ATP (high ATP), IC50 (median)
# T2 construct: purchased ProQinase GmbH (Freiburg, Germany); host or cells: insect cells (Sf9)
# Outline: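 GST-tagged human CDK2 and CycE from Sf9 cells, about 10 ng/ml, pre-incubated 15 min at 22 °C with compound in Tris/HCl pH 8.0 buffer. Reaction with 2 mM ATP and 0.75 µM biotinylated peptide for 25 min at 22 °C. Phospho-RB antibody TR-FRET (665/620 nm ratio) read after 1 h; data normalised to no-inhibitor and no-enzyme controls.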
# T1 sequence (P50750 whole entry): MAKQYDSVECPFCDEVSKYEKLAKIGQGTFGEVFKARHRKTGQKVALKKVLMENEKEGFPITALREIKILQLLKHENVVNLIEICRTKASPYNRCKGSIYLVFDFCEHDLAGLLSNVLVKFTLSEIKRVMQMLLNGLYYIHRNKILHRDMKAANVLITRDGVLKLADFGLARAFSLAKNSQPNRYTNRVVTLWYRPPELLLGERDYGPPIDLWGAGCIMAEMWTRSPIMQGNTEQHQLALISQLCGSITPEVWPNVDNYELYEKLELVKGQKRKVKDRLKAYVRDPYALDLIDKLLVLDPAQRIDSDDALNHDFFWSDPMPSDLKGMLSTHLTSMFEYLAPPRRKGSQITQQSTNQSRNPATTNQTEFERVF
# T1 sequence (O60563 whole entry partner): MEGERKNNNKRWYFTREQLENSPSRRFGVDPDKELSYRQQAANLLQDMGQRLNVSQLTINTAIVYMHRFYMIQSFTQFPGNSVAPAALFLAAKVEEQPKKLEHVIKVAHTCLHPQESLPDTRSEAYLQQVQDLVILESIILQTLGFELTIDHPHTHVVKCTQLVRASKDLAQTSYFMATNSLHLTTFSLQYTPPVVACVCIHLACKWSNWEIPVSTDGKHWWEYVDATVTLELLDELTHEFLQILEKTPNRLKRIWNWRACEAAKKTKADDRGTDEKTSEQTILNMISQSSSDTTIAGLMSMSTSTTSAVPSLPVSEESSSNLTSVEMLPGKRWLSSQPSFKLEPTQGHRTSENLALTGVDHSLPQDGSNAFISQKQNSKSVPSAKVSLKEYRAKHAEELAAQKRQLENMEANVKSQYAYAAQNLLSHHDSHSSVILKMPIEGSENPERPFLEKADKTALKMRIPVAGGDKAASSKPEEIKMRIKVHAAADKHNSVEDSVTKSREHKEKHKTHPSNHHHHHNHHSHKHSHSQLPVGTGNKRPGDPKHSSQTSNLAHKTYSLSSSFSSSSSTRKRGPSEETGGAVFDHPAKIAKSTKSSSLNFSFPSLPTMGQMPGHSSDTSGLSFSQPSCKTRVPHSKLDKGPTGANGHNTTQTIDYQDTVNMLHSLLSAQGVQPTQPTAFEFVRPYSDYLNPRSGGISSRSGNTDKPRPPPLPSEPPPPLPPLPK
SMILES,IC50 (CDK9/CycT1) [µM],IC50 (CDK2/CycE) [µM]
"Fc1ccc2[nH]c(CNc3nc(N4CCOCC4)nc4c(-c5cncs5)cnn34)nc2c1F.O=C(O)C(F)(F)F [Example 442, trifluoroacetic acid N-[(4,5-difluoro-1H-benzimidazol-2-yl)methyl]-2-(morpholin-4-yl)-8-(1,3-thiazol-5-yl)pyrazolo[1,5-a][1,3,5]triazin-4-amine]",> 20,> 20
"OC[C@H]1CCCCN1c1nc(NCc2nc3ccccc3[nH]2)n2ncc(Br)c2n1 [Example 60, [(2R)-1-(4-{[(1H-benzimidazol-2-yl)methyl]amino}-8-bromopyrazolo[1,5-a][1,3,5]triazin-2-yl)piperidin-2-yl]methanol]",7.34,0.738
"Brc1cnn2c(NCc3nc4ccccc4[nH]3)nc(OCCN3CCCC3)nc12 [Example 404, N-[(1H-benzimidazol-2-yl)methyl]-8-bromo-2-[2-(pyrrolidin-1-yl)ethoxy]pyrazolo[1,5-a][1,3,5]triazin-4-amine]",> 20,> 20
"CCc1cnn2c(NCc3nc4c(OC)cccc4[nH]3)nc(N3CCOCC3)nc12 [Example 433, 8-ethyl-N-[(4-methoxy-1H-benzimidazol-2-yl)methyl]-2-(morpholin-4-yl)pyrazolo[1,5-a][1,3,5]triazin-4-amine]",> 20,1.78
"CC(C)c1cnn2c(NCc3ncc(-c4ccccc4)[nH]3)nc(N(C)CC(C)(C)O)nc12 [Example 35, 2-methyl-1-{methyl[4-{[(5-phenyl-1H-imidazol-2-yl)methyl]amino}-8-(propan-2-yl)pyrazolo[1,5-a][1,3,5]triazin-2-yl]amino}propan-2-ol]",9.15,1.7
"FC(F)n1cc(-c2cnn3c(NCc4nc5cc(Cl)c(Cl)cc5[nH]4)nc(N4CCOCC4)nc23)cn1 [Example 423, N-[(5,6-dichloro-1H-benzimidazol-2-yl)methyl]-8-[1-(difluoromethyl)-1H-pyrazol-4-yl]-2-(morpholin-4-yl)pyrazolo[1,5-a][1,3,5]triazin-4-amine]",> 20,> 20
"Brc1cnn2c(NCc3nnc(-c4ccccc4)[nH]3)nc(N3CCCCC3)nc12 [Example 49, 8-bromo-N-[(5-phenyl-4H-1,2,4-triazol-3-yl)methyl]-2-(piperidin-1-yl)pyrazolo[1,5-a][1,3,5]triazin-4-amine]",2.61,2.29
"Cc1cnn2c(NCc3nc4ccccc4[nH]3)nc(N(C)CC(C)(C)O)nc12 [Example 397, 1-[(4-{[(1H-benzimidazol-2-yl)methyl]amino}-8-methylpyrazolo[1,5-a][1,3,5]triazin-2-yl)(methyl)amino]-2-methylpropan-2-ol]",> 20,17.2
"O=C(O)C(F)(F)F.c1ccc2[nH]c(CNc3nc(N4CCOCC4)nc4c(-c5cncs5)cnn34)nc2c1 [Example 441, trifluoroacetic acid-N-[(1H-benzimidazol-2-yl)methyl]-2-(morpholin-4-yl)-8-(1,3-thiazol-5-yl)pyrazolo[1,5-a][1,3,5]triazin-4-amine (1/1)]",> 20,> 20
"CN(C)CCOc1nc(NCc2nc3ccccc3[nH]2)n2ncc(Br)c2n1 [Example 399, N-[(1H-benzimidazol-2-yl)methyl]-8-bromo-2-[2-(dimethylamino)ethoxy]pyrazolo[1,5-a][1,3,5]triazin-4-amine]",> 20,> 20
"CC1(C)CN(c2nc(NCc3nc4ccccc4[nH]3)n3ncc(Br)c3n2)CCO1 [Example 58, N-[(1H-benzimidazol-2-yl)methyl]-8-bromo-2-(2,2-dimethylmorpholin-4-yl)pyrazolo[1,5-a][1,3,5]triazin-4-amine]",> 20,10.7
"N#Cc1cccc(-c2nnc(CNc3nc(N4CCOCC4)nc4c(Br)cnn34)[nH]2)c1 [Example 55, 3-[5-({[8-bromo-2-(morpholin-4-yl)pyrazolo[1,5-a][1,3,5]triazin-4-yl]amino}methyl)-4H-1,2,4-triazol-3-yl]benzonitrile]",0.718,1.07
"C[C@H]1COCCN1c1nc(NCc2nc3ccccc3[nH]2)n2ncc(Br)c2n1 [Example 57, N-[(1H-benzimidazol-2-yl)methyl]-8-bromo-2-[(3S)-3-methylmorpholin-4-yl]pyrazolo[1,5-a][1,3,5]triazin-4-amine]",6.67,1.22
"CC(C)c1cnn2c(NCc3ncc(-c4ccccc4)[nH]3)nc(N3CCCCC3)nc12 [Example 36, N-[(5-phenyl-1H-imidazol-2-yl)methyl]-2-(piperidin-1-yl)-8-(propan-2-yl)pyrazolo[1,5-a][1,3,5]triazin-4-amine]",> 20,> 20
"CCc1cnn2c(NCc3nc4ccccc4[nH]3)nc(N3CCOCC3)nc12 [Example 431, N-[(1H-benzimidazol-2-yl)methyl]-8-ethyl-2-(morpholin-4-yl)pyrazolo[1,5-a][1,3,5]triazin-4-amine]",> 20,1.59
"COc1cccc2nc(CNc3nc(N4CCN(C)CC4)nc4c(-c5nccs5)cnn34)[nH]c12 [Example 416, N-[(7-methoxy-1H-benzimidazol-2-yl)methyl]-2-(4-methylpiperazin-1-yl)-8-(1,3-thiazol-2-yl)pyrazolo[1,5-a][1,3,5]triazin-4-amine]",> 20,> 20
"NCCOCCOCCNc1nc(NCc2nc3ccccc3[nH]2)n2ncc(Br)c2n1 [Example 412, N2-{2-[2-(2-aminoethoxy)ethoxy]ethyl}-N4-[(1H-benzimidazol-2-yl)methyl]-8-bromopyrazolo[1,5-a][1,3,5]triazine-2,4-diamine]",> 20,> 20
"Cc1cnn2c(NCc3nc4c(F)c(F)ccc4[nH]3)nc(N3CCOCC3)nc12 [Example 392, N-[(4,5-difluoro-1H-benzimidazol-2-yl)methyl]-8-methyl-2-(morpholin-4-yl)pyrazolo[1,5-a][1,3,5]triazin-4-amine]",> 20,> 20
"COc1cccc2[nH]c(CNc3nc(N4CCOCC4)nc4c(-c5nccs5)cnn34)nc12 [Example 414, N-[(4-methoxy-1H-benzimidazol-2-yl)methyl]-2-(morpholin-4-yl)-8-(1,3-thiazol-2-yl)pyrazolo [1,5-a][1,3,5]triazin-4-amine]",> 20,> 20
"Cc1cnn2c(NCc3nc4c(F)c(F)ccc4[nH]3)nc(N3CC4CCC(C3)N4)nc12 [Example 400, 2-(3,8-diazabicyclo[3.2.1]octan-3-yl)-N-[(4,5-difluoro-1H-benzimidazol-2-yl)methyl]-8-methylpyrazolo[1,5-a][1,3,5]triazin-4-amine]",> 20,> 20
"CN1CCN(c2nc(NCc3nc4cc(Cl)c(Cl)cc4[nH]3)n3ncc(-c4cnn(C)c4)c3n2)CC1 [Example 420, N-[(5,6-dichloro-1H-benzimidazol-2-yl)methyl]-2-(4-methylpiperazin-1-yl)-8-(1-methyl-1H-pyrazol-4-yl)pyrazolo[1,5-a][1,3,5]triazin-4-amine]",> 20,> 20
"Brc1cnn2c(NCc3nc4ccccc4[nH]3)nc(N3CC4(COC4)C3)nc12 [Example 48, N-[(1H-benzimidazol-2-yl)methyl]-8-bromo-2-(2-oxa-6-azaspiro[3.3]heptan-6-yl)pyrazolo[1,5-a][1,3,5]triazin-4-amine]",> 20,12.6
"Cn1cc(-c2cnn3c(NCc4nc5c(F)c(F)ccc5[nH]4)nc(N4CCOCC4)nc23)cn1 [Example 418, N-[(4,5-difluoro-1H-benzimidazol-2-yl)methyl]-8-(1-methyl-1H-pyrazol-4-yl)-2-(morpholin-4-yl)pyrazolo[1,5-a][1,3,5]triazin-4-amine]",> 20,> 20
"CC(C)c1cnn2c(NCc3nnc(-c4ccccc4)[nH]3)nc(N(C)CC(C)(C)O)nc12 [Example 39, 2-methyl-1-{methyl[4-{[(5-phenyl-4H-1,2,4-triazol-3-yl)methyl]amino}-8-(propan-2-yl)pyrazolo[1,5-a][1,3,5]triazin-2-yl]amino}propan-2-ol]",4.91,2.11
"Clc1cc2nc(CNc3nc(N4CCOCC4)nc4c(-c5cscn5)cnn34)[nH]c2cc1Cl [Example 424, N-[(5,6-dichloro-1H-benzimidazol-2-yl)methyl]-2-(morpholin-4-yl)-8-(1,3-thiazol-4-yl)pyrazolo [1,5-a][1,3,5]triazin-4-amine]",> 20,> 20
"COC(C)(C)COc1nc(NCc2nc3ccccc3[nH]2)n2ncc(Br)c2n1 [Example 403, N-[(1H-benzimidazol-2-yl)methyl]-8-bromo-2-(2-methoxy-2-methylpropoxy)pyrazolo[1,5-a][1,3,5]triazin-4-amine]",> 20,> 20
"N#Cc1cccc(-c2c[nH]c(CNc3nc(N4CCOCC4)nc4c(Br)cnn34)n2)c1 [Example 42, 3-[2-({[8-bromo-2-(morpholin-4-yl)pyrazolo[1,5-a][1,3,5]triazin-4-yl]amino}methyl)-1H-imidazol-4-yl]benzonitrile]",0.937,1.03
"Brc1cnn2c(NCc3nc4ccccc4[nH]3)nc(OC3CCOCC3)nc12 [Example 405, N-[(1H-benzimidazol-2-yl)methyl]-8-bromo-2-[(oxan-4-yl)oxy]pyrazolo[1,5-a][1,3,5]triazin-4-amine]",> 20,> 20

# From patent publication US20230117034A1, “PYRAZOLOTRIAZINES” (Bayer Aktiengesellschaft, priority 2019, published 2023)
